Experiments:
human neutrophils = assay: FMLP-induced generation of superoxide anion radical by human neutrophils; assay type: cell-based; conditions: neutrophils weakened by pathological processes
Excerpt: We have also studied the effect of the compound on formylmethionyl-leucyl-phenylalanine (FMLP)—induced generation of superoxide anion radical (O2^−.) by human neutrophils, weakened by pathological processes (histiocytosis, stage 2 hypertension). Such experimentation was chosen due to the fact, that, in order to perform a complete phagocytosis with complete destruction of pathogenic microorganisms, phagocytes, including neutrophils, generate the so-called reactive oxygen species (ROS), including oxygen radicals and compounds easily converting into such radicals. Superoxide anion radical (O2^−.) hydroxyl radical (OH.) and lipid hydroxyperoxides (ROO*) also belong to AOF. All these compounds have one unpaired electron on outer molecular orbital, giving them high reactivity, which causes their interaction with cell molecules: proteins, RNA, DNA, etc, accompanied by the loss of their biological activity.

rat hemostasis = assay: Model of parenchymal hemorrhage (bleeding time) after oral administration; assay type: in vivo
Method: The model of parenchymal hemorrhage characterizes hemostasis through the stimulation of coagulation cascade. Usually, it is rather difficult to obtain considerable change of bleeding time in these models with resorptive-acting compounds. Direct-action anticoagulants (heparin, heparinoids) prolong bleeding time in these models only in high doses, while the effect is detected at different time (up to 3 hours after the administration). Indirect-action […] drugs (oxycoumarines, indandiones, etc.) usually begin to increase bleeding after a certain delay period (12-48 hours after the administration), which is easily explainable by the modern understanding of their mechanism of action: they stop the biosynthesis of blood clotting plasma factors II, VII, IX, X, while the duration of delay period is determined by the amount of these factors, produced in the liver before the administration of vitamin K reductase inhibitors (oxycoumarines, indandiones).
The duration of parenchymal hemorrhage in the control group was 88.9±1.2 s. Test groups of animals used in the experiments 60 minutes after oral administration of the compound of formula I. After the administration of 8 mg/kg dose the duration of parenchymal hemorrhage in test group increased by 71% compared to original condition, it further increased to 220.6±3.4 s after another hour.

[1] = tested on: pressor effect of noradrenaline; assay: Pressor effect of noradrenaline after intravenous administration in normotensive narcotized rats; assay type: in vivo, rat
Method: The experiments were performed on spontaneously hypertensive (SHT) and normotensive (NT) narcotized male rats using intravenous administration of the tested compounds. The ability of the compound to reduce arterial blood pressure (BP) in SHT rats and prevent spasmogenic reactions to noradrenalin (NA) and angiotensin I (AI).
(§1) The effects of the compound of formula I on the pressor effects of noradrenaline (NA, 10-15 μg/kg), mesatonum (M, 5 μg/kg) and angiotensin (AI, 5 μg/kg) were studied on normotensive narcotized […]. Antihypertensive action of the compound of formula I was assessed relative to the pressor effects of the control administration of the aforementioned compounds.

[2] = tested on: pressor action of mesatonum; assay: Pressor effect of mesatonum in normotensive narcotized animals; assay type: in vivo; conditions: doses 0.01-1.0 mg/kg; mesatonum 5 μg/kg
Method: as §1

[3] = target: T1, soluble guanylate cyclase of human platelets (Homo sapiens, UniProt Q02108+Q02153); assay: Specific activity of soluble guanylate cyclase of human platelets; assay type: biochemical; parameters: Activation: unit: % of initial activity
T1 construct: soluble guanylate cyclase of human platelets; from tissue; host or cells: human platelets
T1 sequence (Q02153 1-619): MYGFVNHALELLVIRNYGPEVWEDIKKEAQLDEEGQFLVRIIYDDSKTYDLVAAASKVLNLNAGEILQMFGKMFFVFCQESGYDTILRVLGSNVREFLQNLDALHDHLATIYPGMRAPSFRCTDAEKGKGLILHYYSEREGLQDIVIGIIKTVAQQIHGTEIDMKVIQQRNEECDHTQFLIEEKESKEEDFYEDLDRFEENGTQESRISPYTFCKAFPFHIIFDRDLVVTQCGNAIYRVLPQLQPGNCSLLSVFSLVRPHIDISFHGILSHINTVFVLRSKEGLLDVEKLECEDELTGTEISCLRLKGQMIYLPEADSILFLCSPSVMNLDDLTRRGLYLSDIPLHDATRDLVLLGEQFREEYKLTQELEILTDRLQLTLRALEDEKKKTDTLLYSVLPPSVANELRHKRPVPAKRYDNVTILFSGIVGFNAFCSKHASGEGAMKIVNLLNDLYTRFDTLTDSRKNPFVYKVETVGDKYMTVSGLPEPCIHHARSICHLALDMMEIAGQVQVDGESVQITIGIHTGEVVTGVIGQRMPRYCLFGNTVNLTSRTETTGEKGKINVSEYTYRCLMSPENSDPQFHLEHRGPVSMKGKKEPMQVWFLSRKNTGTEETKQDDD
T1 sequence (Q02108 1-690): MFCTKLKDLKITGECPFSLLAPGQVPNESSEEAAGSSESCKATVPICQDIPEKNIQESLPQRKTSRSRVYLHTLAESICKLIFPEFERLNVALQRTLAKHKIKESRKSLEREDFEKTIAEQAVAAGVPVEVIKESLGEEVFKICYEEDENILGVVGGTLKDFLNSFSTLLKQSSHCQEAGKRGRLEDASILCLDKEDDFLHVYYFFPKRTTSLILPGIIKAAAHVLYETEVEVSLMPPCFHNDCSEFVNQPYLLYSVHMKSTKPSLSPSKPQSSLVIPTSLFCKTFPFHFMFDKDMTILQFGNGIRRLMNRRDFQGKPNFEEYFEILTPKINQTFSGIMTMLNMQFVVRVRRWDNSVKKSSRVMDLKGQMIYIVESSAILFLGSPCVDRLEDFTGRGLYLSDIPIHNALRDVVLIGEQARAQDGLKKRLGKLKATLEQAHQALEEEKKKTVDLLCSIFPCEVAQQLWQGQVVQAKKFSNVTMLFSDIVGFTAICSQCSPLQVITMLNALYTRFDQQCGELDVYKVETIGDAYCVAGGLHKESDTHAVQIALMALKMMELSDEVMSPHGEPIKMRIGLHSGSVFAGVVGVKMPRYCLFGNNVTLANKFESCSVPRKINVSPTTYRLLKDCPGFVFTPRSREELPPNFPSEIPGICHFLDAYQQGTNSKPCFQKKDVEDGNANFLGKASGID

CN1CC(CO)O/C1=C(C#N)/C=C1/Nc2ccccc2C1=O (centres unmarked) [Compound I, 2-[2-Cyano-2-[5-(hydroxymethyl)-3-methyl-1,3-oxazolidin-2-ylidene]ethylidene]indolin-3-one]
Effect on reduced ability of human neutrophils to generate reactive oxygen species (human neutrophils): briefly enhances | Increase of duration of parenchymal hemorrhage compared to original condition (rat hemostasis; 8 mg/kg oral, 60 minutes after administration): 71% | Duration of parenchymal hemorrhage (rat hemostasis; 8 mg/kg oral, after another hour (control 88.9±1.2 s)): 220.6 ± 3.4 s | Duration of parenchymal hemorrhage vs control (rat hemostasis; 8 mg/kg oral, end of experiment (240 min)): did not differ from the control group | Duration of bleeding (rat hemostasis; 16 mg/kg oral, first 60 min of the observation): increased twofold | Effect on rat hemostasis in the model of parenchymal hemorrhage (rat hemostasis; rat, in vivo): statistically significantly slows down rat hemostasis | Inhibition of pressor reaction (%) induced by Noradrenaline ([1]; 0.01 mg/kg intravenous): 25% | Inhibition of pressor reaction (%) induced by Noradrenaline ([1]; 0.05 mg/kg intravenous): 35% | Inhibition of pressor reaction (%) induced by Noradrenaline ([1]; 0.1 mg/kg intravenous): 50% | Inhibition of pressor reaction (%) induced by Noradrenaline ([1]; 0.5 mg/kg intravenous): 60% | Inhibition of pressor reaction (%) induced by Noradrenaline ([1]; 1.0 mg/kg intravenous): 55-60% | Effect on the pressor action of M (mesatonum) [2]: does not significantly affect | Activation of soluble guanylate cyclase (in words) [3]: approaches that of L-arginine | average degree of activation of the enzyme ([3]; 0.1 mM concentration): 2.12 times | Activation, Mean M ± m ([3]; 0.1 mmol, mean of 5 samples): 212 ± 67 | Specific activity of GC, Mean M ± m ([3]; 0.1 mmol, mean of 5 samples (initial 174 ± 33)): 342 ± 86 pmol cGMP/min/mg protein | Activation ([3]; 0.1 mmol, sample number 1): 446 | Specific activity of GC ([3]; 0.1 mmol, sample number 1 (initial 133)): 593 pmol cGMP/min/mg protein | Activation ([3]; 0.1 mmol, sample number 2): 153 | Specific activity of GC ([3]; 0.1 mmol, sample number 2 (initial 235)): 450 pmol cGMP/min/mg protein | Activation ([3]; 0.1 mmol, sample number 3): 146 | Specific activity of GC ([3]; 0.1 mmol, sample number 3 (initial 100)): 146 pmol cGMP/min/mg protein | Activation ([3]; 0.1 mmol, sample number 4): 189 | Specific activity of GC ([3]; 0.1 mmol, sample number 4 (initial 140)): 265 pmol cGMP/min/mg protein | Activation ([3]; 0.1 mmol, sample number 5): 122 | Specific activity of GC ([3]; 0.1 mmol, sample number 5 (initial 211)): 256 pmol cGMP/min/mg protein
